From ChEMBL document CHEMBL2216749, “Recent developments and biological activities of thiazolidinone derivatives: a review” (Bioorg Med Chem, 2012)
≈ marks a conversion by molar mass, not a printed value.

Legend:
[1] = target: T1, Follicle-stimulating hormone receptor (Homo sapiens, UniProt P23945); assay: Allosteric activation of human FSH receptor
T1 sequence (P23945 whole entry): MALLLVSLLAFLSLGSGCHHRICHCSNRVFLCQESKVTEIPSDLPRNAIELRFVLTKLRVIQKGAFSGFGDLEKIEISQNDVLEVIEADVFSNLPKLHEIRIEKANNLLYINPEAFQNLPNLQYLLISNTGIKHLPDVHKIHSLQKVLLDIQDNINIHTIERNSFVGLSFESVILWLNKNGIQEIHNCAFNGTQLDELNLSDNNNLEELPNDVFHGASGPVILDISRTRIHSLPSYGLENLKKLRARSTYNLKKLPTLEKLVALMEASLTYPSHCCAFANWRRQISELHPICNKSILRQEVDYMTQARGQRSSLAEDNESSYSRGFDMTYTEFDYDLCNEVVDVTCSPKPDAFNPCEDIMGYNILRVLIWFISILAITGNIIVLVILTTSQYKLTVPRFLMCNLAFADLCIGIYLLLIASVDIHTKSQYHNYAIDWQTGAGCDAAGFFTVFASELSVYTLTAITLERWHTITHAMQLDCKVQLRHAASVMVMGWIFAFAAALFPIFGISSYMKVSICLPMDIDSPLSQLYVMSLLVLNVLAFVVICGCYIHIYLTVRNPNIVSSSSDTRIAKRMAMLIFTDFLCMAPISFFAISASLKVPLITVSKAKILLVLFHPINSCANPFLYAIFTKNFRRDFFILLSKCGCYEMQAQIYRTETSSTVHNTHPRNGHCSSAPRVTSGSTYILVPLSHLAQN

[2] = target: T1, Follicle-stimulating hormone receptor; assay: Agonist activity at human FSH receptor by aromatase-based assay; type: functional
[3] = target: T1, Follicle-stimulating hormone receptor; assay: Agonist activity at human FSH receptor by cAMP-based assay; type: functional
[4] = target: Muscarinic acetylcholine receptor M1 (Rattus norvegicus, UniProt P08482); assay: Displacement of [3H]QNB from M1 receptor in Wistar rat cerebral cortex homogenate; type: tissue-based
[5] = target: Tyrosine-protein phosphatase non-receptor type 1 (Homo sapiens, UniProt P18031); assay: Inhibition of GST-tagged PTP1B using pNPP as substrate by spectrophotometric analysis
[6] = test system: Human immunodeficiency virus 1; assay: Antiviral activity against HIV1; type: functional, organism-based
[7] = target: T2, Human immunodeficiency virus type 1 integrase (Human immunodeficiency virus 1, UniProt Q7ZJM1); assay: Inhibition of HIV1 integrase 3' processing activity
[8] = target: T2, Human immunodeficiency virus type 1 integrase; assay: Inhibition of HIV1 integrase strand transfer activity
[9] = Inhibition of HIV reverse transcriptase; design: species or system Human immunodeficiency virus
[10] = target: C-C chemokine receptor type 4 (Homo sapiens, UniProt P51679); assay: Antagonist activity at CCR4; type: functional
[11] = target: Phosphotyrosine-protein phosphatase PTPB (Mycobacterium tuberculosis, UniProt P96830); assay: Inhibition of Mycobacterium tuberculosis protein tyrosine phosphatase B
[12] = test system: Mycobacterium tuberculosis; assay: Growth inhibition of Mycobacterium tuberculosis H37Rv; type: functional
[13] = test system: Mycobacterium tuberculosis; assay: Antimycobacterial activity against Mycobacterium tuberculosis H37Rv by alamar blue susceptibility assay; type: functional
Salmonella typhimurium = assay: Antibacterial activity against Salmonella typhimurium; type: functional, Salmonella enterica subsp. enterica serovar Typhimurium
Bacillus subtilis = assay: Antibacterial activity against Bacillus subtilis; type: functional
Escherichia coli = assay: Antibacterial activity against Escherichia coli; type: functional
[14] = test system: Mycobacterium tuberculosis; assay: Growth inhibition of Mycobacterium tuberculosis H37Rv at 6.25 ug/ml; type: functional; settings: read-out: GI
[15] = test system: Ditylenchus myceliophagus; assay: Nematicidal activity against Ditylenchus myceliophagus after 2 days; type: functional; settings: 48 h, read-out: LD50 (the source's name)
Rattus norvegicus = assay: Antiinflammatory activity in rat assessed as inhibition of carageenaan-induced paw edema relative to control; type: functional
Caenorhabditis elegans = assay: Nematicidal activity against Caenorhabditis elegans after 2 days; type: functional; settings: 48 h, read-out: LD50 (the source's name)
Trypanosoma = assay: Growth inhibition of epimastigote form of Trypanosoma at 100 ug/ml; type: functional; settings: read-out: GI
Trypanosoma cruzi = assay: Growth inhibition of Trypanosoma cruzi at 100 ug/ml; type: functional; settings: read-out: GI
[16] = test system: Bovine viral diarrhea virus 1; assay: Antiviral activity against Bovine viral diarrhea virus; type: functional, organism-based; settings: Bovine viral diarrhea virus isolates and strains
Human alphaherpesvirus 2 = assay: Antiviral activity against Herpes simplex virus 2; type: functional, organism-based
Influenza A virus = assay: Antiviral activity against Influenza A virus H3N2; type: functional, organism-based
Influenza B virus = assay: Antiviral activity against influenza B virus; type: functional, organism-based
Human alphaherpesvirus 1 = assay: Antiviral activity against Herpes simplex virus 1 KOS; type: functional, organism-based; settings: Human alphaherpesvirus 1, KOS

T2 sequence (Q7ZJM1 whole entry): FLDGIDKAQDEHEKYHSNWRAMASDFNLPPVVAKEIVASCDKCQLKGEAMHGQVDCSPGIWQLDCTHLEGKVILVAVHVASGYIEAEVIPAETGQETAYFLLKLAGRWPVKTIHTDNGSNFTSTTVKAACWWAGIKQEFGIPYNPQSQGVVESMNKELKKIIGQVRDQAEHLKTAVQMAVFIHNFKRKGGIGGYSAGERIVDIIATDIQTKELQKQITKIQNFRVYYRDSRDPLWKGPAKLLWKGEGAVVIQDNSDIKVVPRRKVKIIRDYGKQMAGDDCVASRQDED
Muscarinic acetylcholine receptor M1, sequence (P08482 whole entry): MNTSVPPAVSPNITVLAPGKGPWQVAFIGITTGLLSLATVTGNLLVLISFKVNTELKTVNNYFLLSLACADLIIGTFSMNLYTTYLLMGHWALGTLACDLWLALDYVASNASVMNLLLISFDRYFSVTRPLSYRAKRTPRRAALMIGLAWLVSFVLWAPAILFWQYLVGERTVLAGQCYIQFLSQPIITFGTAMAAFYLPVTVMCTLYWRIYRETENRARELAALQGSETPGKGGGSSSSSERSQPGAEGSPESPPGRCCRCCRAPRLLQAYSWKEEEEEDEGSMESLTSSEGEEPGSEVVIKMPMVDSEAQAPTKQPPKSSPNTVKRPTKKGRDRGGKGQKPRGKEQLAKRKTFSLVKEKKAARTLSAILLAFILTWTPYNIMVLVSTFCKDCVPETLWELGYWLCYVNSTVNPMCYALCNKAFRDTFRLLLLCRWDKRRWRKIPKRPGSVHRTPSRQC
Phosphotyrosine-protein phosphatase PTPB, sequence (P96830 whole entry): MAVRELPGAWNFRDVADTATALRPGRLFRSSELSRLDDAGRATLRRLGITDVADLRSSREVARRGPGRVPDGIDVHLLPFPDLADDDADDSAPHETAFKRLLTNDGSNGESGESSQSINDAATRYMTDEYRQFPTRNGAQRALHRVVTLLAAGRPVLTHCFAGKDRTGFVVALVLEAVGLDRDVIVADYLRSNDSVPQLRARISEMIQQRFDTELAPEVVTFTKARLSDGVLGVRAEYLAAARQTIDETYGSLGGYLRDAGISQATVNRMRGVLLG
C-C chemokine receptor type 4, sequence (P51679 whole entry): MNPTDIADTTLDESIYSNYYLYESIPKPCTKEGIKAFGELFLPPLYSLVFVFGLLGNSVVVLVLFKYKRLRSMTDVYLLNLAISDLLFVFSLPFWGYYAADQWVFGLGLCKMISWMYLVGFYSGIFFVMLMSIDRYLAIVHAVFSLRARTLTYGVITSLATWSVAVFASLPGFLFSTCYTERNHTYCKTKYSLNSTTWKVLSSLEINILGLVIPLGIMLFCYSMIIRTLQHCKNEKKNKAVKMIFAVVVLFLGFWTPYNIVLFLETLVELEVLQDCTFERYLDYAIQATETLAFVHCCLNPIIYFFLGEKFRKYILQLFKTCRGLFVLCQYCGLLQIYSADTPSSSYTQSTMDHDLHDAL
Tyrosine-protein phosphatase non-receptor type 1, sequence (P18031 whole entry): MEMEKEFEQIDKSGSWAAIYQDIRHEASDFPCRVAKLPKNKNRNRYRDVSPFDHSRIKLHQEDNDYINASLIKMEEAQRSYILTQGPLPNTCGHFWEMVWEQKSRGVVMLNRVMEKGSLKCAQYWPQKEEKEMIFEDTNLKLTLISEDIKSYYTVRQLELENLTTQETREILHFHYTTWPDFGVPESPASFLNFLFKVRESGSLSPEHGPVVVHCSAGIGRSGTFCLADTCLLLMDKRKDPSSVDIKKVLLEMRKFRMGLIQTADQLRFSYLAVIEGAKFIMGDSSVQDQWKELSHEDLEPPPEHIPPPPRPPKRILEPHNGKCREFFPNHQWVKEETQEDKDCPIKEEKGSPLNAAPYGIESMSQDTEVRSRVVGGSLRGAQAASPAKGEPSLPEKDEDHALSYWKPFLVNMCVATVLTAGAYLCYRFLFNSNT

COc1ccc(CCNC(=O)C[C@H]2S[C@@H](c3ccc(C#Cc4ccccc4)cc3)N(c3ccc(C(N)=O)c(Cl)c3)C2=O)cc1OC
EC50 [1]: 1 nM

CCOc1cc(CCNC(=O)C[C@H]2S[C@@H](c3ccc(C#Cc4ccccc4)cc3)NC2=O)ccc1OC
EC50 [2]: 50 nM | EC50 [3]: 80 nM

Cc1ccc(C2SCC(=O)N2C2=CCCN(C)C2)cc1 (centres undefined)
IC50 [4]: 143000 nM | Ki [4]: 26000 nM

O=C(O)CN1C(=O)/C(=C/c2ccc(-c3ccc(OCc4ccccc4)cc3)cc2)SC1=S
IC50 [5]: 480 nM

Cc1cccc(N2C(=O)CSC2c2ccccn2)n1 (centres undefined)
EC50 [6]: 7.8 nM

O=C(Nc1ccc(O)cc1)C(=S)NN1C(=O)/C(=C\c2cc(I)cc(I)c2O)SC1=S
IC50 [7]: 7000 nM | IC50 [8]: 3000 nM

Cc1nc(N2C(=O)CSC2c2ccccc2Cl)nc(C)c1C (centres undefined)
IC50 [9]: 2950 nM

C[C@H](NC(=O)C[C@H]1S[C@H](c2ccc(Cl)cc2Cl)N(CC(=O)NCCCN2CCCCC2)C1=O)c1cccc2ccccc12
IC50 [10]: 110 nM

O=C1CS(=O)(=O)C2(C(=O)N(Cc3ccc(Br)cc3)c3ccc([N+](=O)[O-])cc32)N1c1ccc(F)c(F)c1 (centres undefined)
IC50 [11]: 1100 nM

O=c1oc2ccccc2cc1-c1cs/c(=N\N=C\c2ccc(Cl)c(Cl)c2)n1C1CCCCC1
Imax [12]: 42%

COc1cc(C2SCC(=O)N2NC(=O)c2ccncc2)ccc1O (centres undefined)
MIC [13]: 0.31 µg/mL (≈ 0.898 µM)

CC1C(N2C(=O)CSC2c2cc(I)cc(I)c2O)C(=O)N(c2ccccc2)N1C (centres undefined)
inhibition zone (IZ) (Salmonella typhimurium): 25 mm | inhibition zone (IZ) (Bacillus subtilis): 24 mm | inhibition zone (IZ) (Escherichia coli): 27 mm

COc1ccc(C(=O)Nc2ccc(C(=O)NN3C(=O)CSC3c3coc([N+](=O)[O-])c3)cc2)cc1 (centres undefined)
inhibition of growth at 6.25 µg/mL [14]: 90%

COc1ccc(Cc2cccc(C3SC(CC(=O)O)C(=O)N3c3cccc(O)c3)c2)cc1C1SC(CC(=O)O)C(=O)N1c1cccc(O)c1 (centres undefined)
LC50 [15]: 210 µg/mL (≈ 300 µM)

Cc1c(N2C(=O)CSC2c2cc(I)cc(I)c2O)c(=O)n(-c2ccccc2)n1C (centres undefined)
inhibition zone (IZ) (Salmonella typhimurium): 25 mm | inhibition zone (IZ) (Bacillus subtilis): 24 mm | inhibition zone (IZ) (Escherichia coli): 27 mm

NS(=O)(=O)c1ccc(N2C(=O)CSC2c2ccccc2)cc1 (centres undefined)
inhibition (INH) (Rattus norvegicus): 78%

COc1ccc(Cc2cccc(C3SCC(=O)N3c3cccc(O)c3)c2)cc1C1SCC(=O)N1c1cccc(O)c1 (centres undefined)
LC50 (Caenorhabditis elegans): 240 µg/mL (≈ 410 µM)

O=C1CSC(c2cccc3ccccc23)N1c1ccc(Br)cc1 (centres undefined)
inhibition of growth at 100 µg/mL (Trypanosoma): 91.4%

CNC(=O)CC1S/C(=N\N=C(/C)c2cccc(Br)c2)N(C)C1=O (centres undefined)
inhibition of growth at 100 µg/mL (Trypanosoma cruzi): 60%

O=C(N/N=C1/SCC(=O)N1c1ccccc1)c1cc(-c2cc3ccccc3o2)n(-c2ccccc2)n1
inhibition zone (IZ) (Bacillus subtilis): 40 mm

CC1S/C(=N/N=C2\C(=O)Nc3ccc([N+](=O)[O-])cc32)N(c2ccc(Br)cc2)C1=O (centres undefined)
EC50 [16]: 13 µg/mL (≈ 27.4 µM)

Cc1cc(C)nc(N2C(=O)CSC2c2c(C)cccc2C)c1 (centres undefined)
EC50 (Human alphaherpesvirus 2): 161000 nM | EC50 (Influenza A virus): 249000 nM | EC50 (Influenza B virus): 263000 nM | EC50 (Human alphaherpesvirus 1): 130000 nM

COc1ccc(C(=O)Nc2ccc(C(=O)NN3C(=O)CSC3c3ccc(F)cc3)cc2)cc1 (centres undefined)
inhibition of growth at 6.25 µg/mL [14]: 98%

Cc1ccc(-c2cc(C(F)(F)F)nn2-c2ccc(S(N)(=O)=O)cc2)cc1 [CELECOXIB]
inhibition (INH) (Rattus norvegicus): 45%
